A short description of one data set: solubility in water. The settings on record: in water at 25° C. and pH 6. Format: physicochemical. The source says: (§1) The amounts of residual solvent present in the final aqueous phase are removed by extraction with 2 liters of ethyl acetate. […] The aqueous phase is then concentrated by evaporation under vacuo, after which it is lyophilized. The structure of the product was verified by elemental analysis and proton NMR spectroscopy.
(b) The lactyl-L-tyrosine ethyl ester is purified and deesterified according to the procedure described in Example 1 in relation to L-malyl-L-tyrosine ethyl ester, to obtain L-lactyl-L-tyrosine monosodium salt.

The nature of data set [1]: solubility in ethyl acetate. Type of data set: physicochemical. Particulars: extraction of the aqueous phase with ethyl acetate.
Excerpt: as §1

[2] abbreviates: read-out: solubility in water, equivalent molar.

Like-named read-outs stand apart in the source and are kept apart here.

From patent US4956489A (Bioeurope, priority 1987, dated 1990) come the findings set out here.

Regarding `C[C@H](O)C(=O)N[C@@H](Cc1ccc(O)cc1)C(=O)[O-].[Na+]`, the results for the solubility in the data set “solubility in water” (read-out: solubility in water) and in “solubility in water” (setting [2]) were not below 330 mg/mL and not below 1200 mM, respectively.

`O=C([O-])C[C@H](O)C(=O)N[C@@H](Cc1ccc(O)cc1)C(=O)[O-].[Na+].[Na+]` [L-malyl-L-tyrosine disodium salt]: the solubility (commonly the concentration that dissolves in the medium under given conditions) was 820 mg/mL in the data set “solubility in water” (read-out: solubility in water) and 2400 mM in the data set “solubility in water” (setting [2]). Besides, the “solubility in ethyl acetate” value in data set [1] is “not soluble in ethyl acetate”.
